From PubChem BioAssay AID1996
Values after ≈ are worked out from the molar mass of the structure shown. Non-standard residues stand in square brackets, D forms with d. Residues, ends and D or L forms follow the SMILES beside them. *: point of attachment. Tic = O=C(O)[C@@H]1Cc2ccccc2CN1; Boc = CC(C)(C)OC(=O)*

Details: buffer; pH 7.4; 200.0 µM

Point of comparison: CSc1ccc(CN2CCc3c([nH]c4ccccc34)C2)cc1, solubility kinetic 2 µg/mL (≈ 6.48 µM). Against it:
- CC(=O)Oc1ccc(C(=O)NCCc2ccccc2)cc1 — 11-fold higher, 21.5 µg/mL (≈ 75.9 µM)
- CC(c1ccccc1)C1CC(=O)N(c2ccccc2)C1=O (stereo not given) — 21-fold higher, 41.1 µg/mL (≈ 147 µM)
- COc1ccc(Nc2nc(N3CCOCC3)nc(N3CCOCC3)n2)cc1 — within 1.5-fold, 1.4 µg/mL (≈ 3.76 µM)
- COc1ccc(-c2csc(N)n2)cc1F — 12-fold higher, 23.8 µg/mL (≈ 106 µM)
- COc1ccc(NC(=S)NC(=O)c2ccccc2)cn1 — 18-fold higher, 35.8 µg/mL (≈ 125 µM)
- O=C(CN1CCCCC1)N1CCN(c2ccccc2)CC1 — higher, > 43.1 µg/mL
- Cc1ccc2c(c1)=C(c1ccccc1)N(O)CC(=O)N=2 — higher, > 39.9 µg/mL
- O=C(COc1ccccc1)NC1CCS(=O)(=O)C1 (stereo not given) — higher, > 40.4 µg/mL
- Cc1ccc(NC(=O)CNC(=O)c2ccco2)c(Cl)c1 — higher, > 43.9 µg/mL
- O=C(Cn1cnc2ccccc21)c1ccc(Cl)cc1 — 14-fold higher, 28.9 µg/mL (≈ 107 µM)
- CN(C(=O)c1ccncc1)C1CCCCC1 — higher, > 32.7 µg/mL
- CSc1ccc(C2N=C(c3ccccc3)NO2)cc1 (stereo not given) — 6-fold higher, 11.9 µg/mL (≈ 44 µM)
- COC(CNC(=O)c1coc2nc3ccccc3nc12)OC — 17-fold higher, 34.8 µg/mL (≈ 115 µM)
- CSc1nc(Nc2ccc(Cl)cc2)c(C#N)c(=O)[nH]1 — 3.9-fold higher, 7.8 µg/mL (≈ 26.6 µM)
- Cc1nn(C)c(C)c1NS(=O)(=O)c1c(C)n[nH]c1C — higher, > 42.5 µg/mL
- COc1ccc(CCN(C)C(=O)c2cnc(C)cn2)cc1OC — 19-fold higher, 38.1 µg/mL (≈ 121 µM)
- COc1ccccc1OCC(=O)OCC(=O)NC1CCCCC1 — higher, > 48.2 µg/mL
- N#Cc1c(Cl)cccc1N1CCCC1 — the same, 2 µg/mL (≈ 9.68 µM)
- CC(C)(C)OC(=O)N1Cc2ccccc2C[C@H]1C(=O)N1CCC[C@H]1C(=O)O (Boc-[Tic]-Pro-OH) — 25-fold higher, 49.9 µg/mL (≈ 133 µM)
- O=C(COC(=O)c1ccc[nH]c1=O)Nc1ccc2c(c1)OC(F)(F)O2 — higher, > 52.8 µg/mL
- CC(=O)C1C(c2ccc(F)cc2)c2c(noc2C)CC1(C)O (stereo not given) — higher, > 45.5 µg/mL
- CC(C)CN1C(=O)c2ccc(NC(=O)Cc3ccccc3)cc2C1=O — lower, < 0.4 µg/mL
- Oc1ccccc1C(=S)N1CCCC1 — higher, > 31.1 µg/mL
- COC(=O)c1cn(C(=O)c2ccc(Cl)cc2)c2ccccc12 — within 1.5-fold, 1.6 µg/mL (≈ 5.1 µM)
- C#CCN(CC=C)C(=O)c1ccc2nc(C3CCCCC3)oc2c1 — 22-fold higher, 43.5 µg/mL (≈ 135 µM)
- O=C(O)/C=C/C(=O)Nc1ccc(O)cc1 — higher, > 31.1 µg/mL
- Cc1cc(NC(=O)CC(C)C)c(=O)n(Cc2cccc(F)c2)c1 — 22-fold higher, 43.7 µg/mL (≈ 138 µM)
- C=CCN1CCN(C(=O)c2cc3c(s2)CCC(CC)C3)CC1 (stereo not given) — 23-fold higher, 46.3 µg/mL (≈ 145 µM)
- O=C(CCc1nc2ccccc2s1)OCC(=O)c1ccc[nH]1 — 7.1-fold higher, 14.2 µg/mL (≈ 45.2 µM)
- O=C(COC(=O)CC1CCCC1)Nc1ccc(Cl)cn1 — 4.5-fold higher, 9.1 µg/mL (≈ 30.7 µM)
- O=C1CN(C(=O)COC(=O)COc2ccccc2)c2ccccc2N1 — higher, > 51.1 µg/mL
- COc1ccc(CCC(=O)Nc2cnc3ccccc3c2)cc1 — 2-fold lower, 1 µg/mL (≈ 3.26 µM)
- Cc1ccc(CN2CCN(c3cccc4[nH]ccc34)CC2)cc1 — 21-fold higher, 41.2 µg/mL (≈ 135 µM)
- Cc1cccc(C)c1NC(=O)C1CCN(S(C)(=O)=O)CC1 — higher, > 46.6 µg/mL
- O=C(CNC(=O)N1CC(=O)Nc2ccccc21)Nc1ccccc1 — higher, > 48.7 µg/mL
- CC1CCCN(Cc2ccc(OCc3ccccc3)cc2)C1 (stereo not given) — 16-fold higher, 31.5 µg/mL (≈ 107 µM)
- O=C1Nc2ccccc2C1C(C[N+](=O)[O-])c1ccccn1 (stereo not given) — higher, > 42.5 µg/mL
- Cc1cc(/C=C/C(=O)O)c(C)n1-c1ccc(Cl)cc1 — higher, > 41.4 µg/mL
- Cc1cc(C)nc(Nc2ccc(O)cc2)n1 — higher, > 32.3 µg/mL
- CCc1onc(C)c1C(=O)O — higher, > 23.3 µg/mL
- Cc1ccc(CN2CCN(c3ccccc3)CC2)o1.O=C(O)C(=O)O — 25-fold higher, 49.1 µg/mL
- O=C(c1ccc2ncsc2c1)N1CCCCC1 — higher, > 36.9 µg/mL
- COc1ccccc1NC(=O)c1ccc2nsnc2c1 — 20-fold higher, 39.6 µg/mL (≈ 139 µM)
- O=C(Nc1cc(Cl)ccc1O)c1cc(-c2ccco2)on1 — within 1.5-fold, 1.4 µg/mL (≈ 4.59 µM)
- Cc1coc2cc3oc(=O)c(CCC(=O)NC4CC4)c(C)c3cc12 — 8.3-fold higher, 16.7 µg/mL (≈ 51.3 µM)
- O=C(CCc1ccccc1)NC(=S)Nc1cccc(C(=O)O)c1 — higher, > 49.3 µg/mL
- CC(C)[C@H](NC(=O)NC1CCN(Cc2ccccc2)CC1)C(=O)O — 9.9-fold higher, 19.8 µg/mL (≈ 59.4 µM)
- CCOC(=O)c1c(C)[nH]c(C)c1C(=O)COC(=O)/C=C/c1ccco1 — higher, > 51.8 µg/mL
- Cc1ccccc1N1CCN(CC(=O)NCc2ccc(Cl)cc2)CC1 — 9.8-fold higher, 19.6 µg/mL (≈ 54.8 µM)
- Cc1ccc[n+](C(C)C(=O)c2ccc(Cl)cc2)c1.[Br-] (stereo not given) — 22-fold higher, 44.9 µg/mL
- Cc1ccc(S(=O)(=O)N2CCN(C(=O)N3CCCC3)CC2)cc1 — 24-fold higher, 48.7 µg/mL (≈ 144 µM)
- O=C(CNC(=O)c1cccs1)c1ccc(Cl)cc1 — 13-fold higher, 26.4 µg/mL (≈ 94.4 µM)
- CN(C)c1cccc(C(=O)NCc2ccc3c(c2)OCO3)c1 — higher, > 44.8 µg/mL
- O=C(CCN1C(=O)C2CC=CCC2C1=O)OCC(=O)c1ccc(F)cc1 (stereo not given) — higher, > 53.9 µg/mL
- COCCCNC(=S)Nc1cccc2ncccc12 — 20-fold higher, 40.9 µg/mL (≈ 149 µM)
- CC(=O)c1cccc(Nc2c([N+](=O)[O-])c(=O)oc3ccccc23)c1 — 2.2-fold lower, 0.9 µg/mL (≈ 2.78 µM)
- COC(=O)c1c(Sc2ccccc2)c2ccccc2n1C — lower, < 0.6 µg/mL
- COc1ccc(S(=O)(=O)c2c[nH]c(=S)[nH]c2=O)cc1Cl — higher, > 49.9 µg/mL
- COc1ccc(NS(=O)(=O)c2ccc3[nH]c(=O)[nH]c3c2)cc1 — 6.3-fold higher, 12.7 µg/mL (≈ 39.8 µM)
